In patent publication US20250122191A1, “COMPOUNDS AS BCL-2 INHIBITORS” (Fochon Biosciences, Ltd, priority 2021, published 2025):

system: Toledo cells; test: Cell proliferation assay (MTS), Toledo cells; type: cell-based; conditions: Homo sapiens, 72 h
Protocol: MTS testing kit was purchased from Promega (Madison, WI, USA). The RPMI-1640, Fetal bovine serum and Penicillin-Streptomycin were purchased from BI (Biological Industries, Beit Haemek, Israel). Dimethyl sulfoxide (DMSO) was purchased from Sigma (St. Louis., MO, USA). Toledo (ATCC catalog #: CRL-2631) cells were cultured in RPMI-1640 supplemented with Penicillin-Streptomycin and 10% FBS.
To investigate whether a compound is able to inhibit the activity of BCL-2 in cells, a mechanism-based assay using Toledo lines was developed. In this assay, the inhibition of BCL-2 was reflected by the inhibition of cell proliferation of Toledo cells. Cells were plated into 96-well plates at the optimized cell density of 30000 cells/well. Plates were incubated at 37° C., with 5% CO2 for 4 h. Compounds were serially diluted and added to the plates with the final concentrations of 10000, 3333.3, 1111.1, 370.4, 123.5, 41.2, 13.7, 4.6 and 1.5 nM. Plates were incubated at 37° C., with 5% CO2 for 72 h. 20 μl MTS was added into each well and the plates were incubated at 37° C., with 5% CO2 for exactly 2 h. The absorbance was measured by a microplate reader at 490 nm. IC50 was calculated using GraphPad Prism 5.0 software.

Row | SMILES | IC50
1 | COc1cc(CN2CCC(N3CC4(CCN(c5ccc(C(=O)NS(=O)(=O)c6cnc(NC[C@H]7CC[C@](C)(O)CC7)c([N+](=O)[O-])c6)c(Oc6cc7c(F)c[nH]c7nc6OC)c5)CC4)C3)C(c3ccccc3C(C)C)C2)ccc1C1CC1 (some centres unmarked) [Example 24, 4-(2-(1-(4-cyclopropyl-3-methoxybenzyl)-3-(2-isopropylphenyl)piperidin-4-yl)-2,7-diazaspiro[3.5]nonan-7-yl)-2-((3-fluoro-6-methoxy-1H-pyrrolo[2,3-b]pyridin-5-yl)oxy)-N-((6-((((1r,4r)-4-hydroxy-4-methylcyclohexyl)methyl)amino)-5-nitropyridin-3-yl)sulfonyl)benzamide] | 1 nM
2 | CCOc1nc2[nH]cc(F)c2cc1Oc1cc(N2CCC3(CC2)CC(N2CCN(Cc4ccc(OC)c(F)c4)C[C@H]2c2ccccc2C(C)C)C3)ccc1C(=O)NS(=O)(=O)c1cnc(NC[C@H]2CC[C@](C)(O)CC2)c([N+](=O)[O-])c1 [Example 98, 2-((6-ethoxy-3-fluoro-1H-pyrrolo[2,3-b]pyridin-5-yl)oxy)-4-(2-((R)-4-(3-fluoro-4-methoxybenzyl)-2-(2-isopropylphenyl)piperazin-1-yl)-7-azaspiro[3.5]nonan-7-yl)-N-((6-((((1r,4r)-4-hydroxy-4-methylcyclohexyl)methyl)amino)-5-nitropyridin-3-yl)sulfonyl)benzamide] | 1 nM
3 | CCOc1nc2[nH]cc(F)c2cc1Oc1cc(N2CCC3(CC2)CC(N2CCN(C(C)C)C[C@H]2c2ccccc2C(C)C)C3)ccc1C(=O)NS(=O)(=O)c1cnc(NC[C@H]2CC[C@](C)(O)CC2)c([N+](=O)[O-])c1 [Example 100, 2-((6-ethoxy-3-fluoro-1H-pyrrolo[2,3-b]pyridin-5-yl)oxy)-N-((6-((((1r,4r)-4-hydroxy-4-methylcyclohexyl)methyl)amino)-5-nitropyridin-3-yl)sulfonyl)-4-(2-((R)-4-isopropyl-2-(2-isopropylphenyl)piperazin-1-yl)-7-azaspiro[3.5]nonan-7-yl)benzamide] | 1 nM
4 | CCOc1nc2[nH]cc(F)c2cc1Oc1cc(N2CCC3(CC2)CC(N2CCN(Cc4cc(F)c(OC)c(F)c4)C[C@H]2c2ccccc2C(C)C)C3)ccc1C(=O)NS(=O)(=O)c1cnc(NC[C@H]2CC[C@](C)(O)CC2)c([N+](=O)[O-])c1 [Example 108, 4-(2-((R)-4-(3,5-difluoro-4-methoxybenzyl)-2-(2-isopropylphenyl)piperazin-1-yl)-7-azaspiro[3.5]nonan-7-yl)-2-((6-ethoxy-3-fluoro-1H-pyrrolo[2,3-b]pyridin-5-yl)oxy)-N-((6-((((1r,4r)-4-hydroxy-4-methylcyclohexyl)methyl)amino)-5-nitropyridin-3-yl)sulfonyl)benzamide] | 1 nM

system: RS4;11-BCL-2 G101V cells; test: Cell proliferation assay (MTS), RS4;11-BCL-2 G101V engineered cells; type: cell-based; conditions: Homo sapiens, 120 h, read-out: RS4, 11 BCL2-G101V IC50
From the text: MTS testing kit was purchased from Promega (Madison, WI, USA). The RPMI-1640, Fetal bovine serum and Penicillin-Streptomycin were purchased from BI (Biological Industries, Beit Haemek, Israel). Puromycin was purchased from Beyotime (shanghai, China). Dimethyl sulfoxide (DMSO) was purchased from Sigma (St. Louis., MO, USA). RS4;11-BCL-2 G101V (Cobioer Lot. #: CBD2021063013P4), RS4;11-BCL-2 D103E (Cobioer Lot. #: CBD2021063013P4), RS4;11-BCL-2 D103Y (Cobioer Lot. #: CBD2022012101P4) and RS4;11-BCL-2 F104L (Cobioer Lot. #: CBD2021063014P4) cells were cultured in RPMI1640 supplemented with 1 ug/mL puromycin, 100 U/mL Penicillin-Streptomycin and 10% FBS.
To investigate whether a compound is able to inhibit the activity of BCL-2 mutation in cells, a mechanism-based assay using engineered cell lines stably overexpressing BCL-2 mutation (RS4;11-BCL-2 G101V, RS4;11-BCL-2 D103E, RS4;11-BCL-2 D103Y, and RS4;11-BCL-2 F104L) was developed. In this assay, the inhibition of BCL-2 mutation was reflected by the inhibition of cell proliferation of engineered RS4;11 cells. Cells were plated into 96-well plates at optimized cell density (RS4;11-BCL-2 G101V: 5000 cells/well; RS4;11-BCL-2 D103E: 7500 cells/well; RS4;11-BCL-2 D103Y: 7500 cells/well; RS4;11-BCL-2 F104L: 5000 cells/well). Plates were incubated at 37° C., with 5% CO2 for 4 h (RS4;11-BCL-2 G101V, RS4;11-BCL-2 F104L) and 24 h (RS4;11-BCL-2 D103E, RS4;11-BCL-2 D103Y), respectively. Compounds were serially diluted and added to the plates with the final concentrations of 10000, 3333.3, 1111.1, 370.4, 123.5, 41.2, 13.7, 4.6 and 1.5 nM. Plates were incubated at 37° C., with 5% CO2 for 120 h (RS4; 11-BCL-2 G101V, RS4; 11-BCL-2 F104L) and 72 h (RS4;11-BCL-2 D103E, RS4;11-BCL-2 D103Y), respectively. 20 μl MTS was added into each well and the plates were incubated at 37° C., with 5% CO2 exactly for 2 h. The absorbance was measured by a microplate reader at 490 nm. IC50 values were calculated using GraphPad Prism 8.0 software.

Row | IC50 | SMILES
5 | 1 nM | COc1ccc(CN2CCN(C3CC4(CCN(c5ccc(C(=O)NS(=O)(=O)c6cnc(NC[C@H]7CC[C@](C)(O)CC7)c([N+](=O)[O-])c6)c(Oc6cnc7[nH]cc(F)c7c6)c5)CC4)C3)[C@H](c3ccccc3C(C)C)C2)nc1 [Example 256, 2-((3-fluoro-1H-pyrrolo[2,3-b]pyridin-5-yl)oxy)-N-((6-((((1r,4r)-4-hydroxy-4-methylcyclohexyl)methyl)amino)-5-nitropyridin-3-yl)sulfonyl)-4-(2-((R)-2-(2-isopropylphenyl)-4-((5-methoxypyridin-2-yl)methyl)piperazin-1-yl)-7-azaspiro[3.5]nonan-7-yl)benzamide]
6 | 1 nM | COc1nc2[nH]cc(F)c2cc1Oc1cc(N2CCC3(CC2)CC(N2CCN(CC4CCOCC4)C[C@H]2c2ccccc2C(C)C)C3)ccc1C(=O)NS(=O)(=O)c1cnc(NC[C@H]2CC[C@](C)(O)CC2)c([N+](=O)[O-])c1 [Example 317, 2-((3-fluoro-6-methoxy-1H-pyrrolo[2,3-b]pyridin-5-yl)oxy)-N-((6-((((1r,4r)-4-hydroxy-4-methylcyclohexyl)methyl)amino)-5-nitropyridin-3-yl)sulfonyl)-4-(2-((R)-2-(2-isopropylphenyl)-4-((tetrahydro-2H-pyran-4-yl)methyl)piperazin-1-yl)-7-azaspiro[3.5]nonan-7-yl)benzamide]
7 | 1 nM | COc1nc2[nH]cc(F)c2cc1Oc1cc(N2CCC3(CC2)CC(N2CCN(C4CCOCC4)C[C@H]2c2ccccc2C(C)C)C3)ccc1C(=O)NS(=O)(=O)c1cnc(NC[C@H]2CC[C@](C)(O)CC2)c([N+](=O)[O-])c1 [Example 319, 2-((3-fluoro-6-methoxy-1H-pyrrolo[2,3-b]pyridin-5-yl)oxy)-N-((6-((((1r,4r)-4-hydroxy-4-methylcyclohexyl)methyl)amino)-5-nitropyridin-3-yl)sulfonyl)-4-(2-((R)-2-(2-isopropylphenyl)-4-(tetrahydro-2H-pyran-4-yl)piperazin-1-yl)-7-azaspiro[3.5]nonan-7-yl)benzamide]
8 | 1 nM | CC(C)c1ccccc1[C@@H]1CN(C2CCC(O)CC2)CCN1C1CC2(CCN(c3ccc(C(=O)NS(=O)(=O)c4cnc(NC[C@H]5CC[C@](C)(O)CC5)c([N+](=O)[O-])c4)c(Oc4cnc5[nH]cc(F)c5c4)c3)CC2)C1 (stereo partly drawn) [Example 333, 2-((3-fluoro-1H-pyrrolo[2,3-b]pyridin-5-yl)oxy)-N-((6-((((1r,4r)-4-hydroxy-4-methylcyclohexyl)methyl)amino)-5-nitropyridin-3-yl)sulfonyl)-4-(2-((R)-4-(4-hydroxycyclohexyl)-2-(2-isopropylphenyl)piperazin-1-yl)-7-azaspiro [3.5]nonan-7-yl)benzamide]
9 | 1 nM | CC(C)c1ccccc1[C@@H]1CN(Cc2ccc3c(c2)OC(F)(F)O3)CCN1C1CC2(CCN(c3ccc(C(=O)NS(=O)(=O)c4cnc(NC[C@H]5CC[C@](C)(O)CC5)c([N+](=O)[O-])c4)c(Oc4cnc5[nH]cc(F)c5c4)c3)CC2)C1 [Example 352, 4-(2-((R)-4-((2,2-difluorobenzo[d][1,3]dioxol-5-yl)methyl)-2-(2-isopropylphenyl)piperazin-1-yl)-7-azaspiro[3.5]nonan-7-yl)-2-((3-fluoro-1H-pyrrolo [2,3-b]pyridin-5-yl)oxy)-N-((6-((((1r,4r)-4-hydroxy-4-methylcyclohexyl)methyl)amino)-5-nitropyridin-3-yl)sulfonyl)benzamide]
10 | 1 nM | COc1ncc(CN2CCN(C3CC4(CCN(c5ccc(C(=O)NS(=O)(=O)c6cnc(NC[C@H]7CC[C@](C)(O)CC7)c([N+](=O)[O-])c6)c(Oc6cc7c(F)c[nH]c7nc6OC)c5)CC4)C3)[C@H](c3ccccc3C(C)C)C2)cn1 [Example 359, 2-((3-fluoro-6-methoxy-1H-pyrrolo[2,3-b]pyridin-5-yl)oxy)-N-((6-((((1r,4r)-4-hydroxy-4-methylcyclohexyl)methyl)amino)-5-nitropyridin-3-yl)sulfonyl)-4-(2-((R)-2-(2-isopropylphenyl)-4-((2-methoxypyrimidin-5-yl)methyl)piperazin-1-yl)-7-azaspiro[3.5]nonan-7-yl)benzamide]
11 | 1 nM | COc1ncc(CN2CCN(C3CC4(CCN(c5ccc(C(=O)NS(=O)(=O)c6cnc(NC[C@H]7CC[C@](C)(O)CC7)c([N+](=O)[O-])c6)c(Oc6cnc7[nH]cc(F)c7c6)c5)CC4)C3)[C@H](c3ccccc3C(C)C)C2)cn1 [Example 360, 2-((3-fluoro-1H-pyrrolo[2,3-b]pyridin-5-yl)oxy)-N-((6-((((1r,4r)-4-hydroxy-4-methylcyclohexyl)methyl)amino)-5-nitropyridin-3-yl)sulfonyl)-4-(2-((R)-2-(2-isopropylphenyl)-4-((2-methoxypyrimidin-5-yl)methyl)piperazin-1-yl)-7-azaspiro[3.5]nonan-7-yl)benzamide]
